# Results reported in patent US6818741B2, “Alpha-fetoprotein peptides and uses therof” (CLF Medical Technology Acceleration Program, Inc., priority 2000, dated 2004).
# “Also recorded” adds a separate entry of the source. Square brackets hold non-standard residues; d marks the D form. Ends that are not written are not given here. Peptide text beside a SMILES is read from it. Hyp = O=C(O)[C@@H]1C[C@@H](O)CN1
# How the values were obtained:
# [1] = system: E2-stimulated growth of immature mouse uterus; assay: Immature mouse uterine growth assay (anti-estrotrophic activity); assay type: in vivo; conditions: for dose of maximal (optimal) inhibition of estrogen-stimulated growth of mouse uterus: i.p., dose-response; for effect of 4 M urea treatment on biological activity of stored peptide: stored (aged) peptide, brief treatment with 4 M urea; for inhibition of the uterotrophic effect of estradiol (normalized uterine weight, E2+ Pep vs E2): Pep i.p. one hour before E2, uteri weighed 22 hours later; for biological activity of gel-filtration fraction: aged peptide, 1 μg i.p.
# Excerpt: (§1) Twenty-two hours later, uteri were dissected and weighed. […] (FIG. 1a) Peptide dose-response.
# (§2) Immature Mouse Uterine Growth Assay.
# [2] = Shelf-life (storage) studies of lyophilized peptide, read out in the immature mouse uterine growth assay; assay type: physicochemical; conditions: for time in storage after which anti-estrotrophic activity was lost (diminished to insignificant levels): lyophilized, −20° C.; for shelf-life: storage in the lyophilized state, tested in immature mouse uterine growth assay
# Excerpt: as §1, §2
# [3] = system: MCF-7 human breast cancer xenografts; assay: Human breast cancer xenograft assay, MCF-7; assay type: in vivo; conditions: E2 implant; peptide 1 μg i.p. twice a day; tamoxifen 50 μg i.p. once a day; 30-day observation; vs E2 alone
# Method: (§3) Tumors were implanted as described in Materials and Methods. […] There was a minimum of 5 mice per group. (FIG. 9a) MCF-7 tumors.
# Human Breast Cancer Xenograft Assay. A bioassay for anti-breast cancer activity was performed according to Bennett et al. (23;24). Confluent MCF-7 human breast cancer cells were trypsinized into suspension and pelleted by centrifugation at 200× g. The pellet was then solidified into a fibrin clot by exposing it to 10 μl of fibrinogen (50 mg/ml) and 10 μl of thrombin (50 units/ml). The solid mass of MCF-7 cells was then cut into pieces 1.5 mm in diameter. A tumor segment of ˜1.5 mm in diameter was implanted under the kidney capsule of an immunodeficient ICR-SCID male mouse (Taconic Farms) that weighed about 25 g. Estrogen supplementation was accomplished by s.c. implantation of a silastic tubing capsule containing solid E2 inserted on the day of tumor implantation. Peptide was injected i.p. every twelve hours at a dose of 1 μg per mouse. Tumor growth was monitored during survival laparotomy at 10-day intervals by measurement of the diameters of the short (d) and long axes (D) of each tumor, using a dissecting microscope equipped with an ocular micrometer. Tumor volumes were calculated using the formula (π/6)(d)^2D, assuming the tumor shape to be an ellipsoid of revolution around its long axis (D). There were five to seven replicate mice included in each treatment group. Mean tumor volume±standard error in each group was calculated for display of growth curves. Significance of differences between groups were tested using the one-sided Wilcoxon Sum of Ranks Test.
# [4] = system: MCF-7/Tam human breast cancer xenografts; assay: Human breast cancer xenograft assay, tamoxifen-resistant MCF-7 subline; assay type: in vivo; conditions: E2 implant; peptide 1 μg i.p. twice a day; tamoxifen 50 μg i.p. once a day; day 30; vs E2 alone
# Method: as §3
# Cell Lines. T47D and MDA-MB-231 human breast cancer cell lines were purchased from the American Type Culture Collection (Manassas, Va.). Growth medium for T47D cells consisted of RPMI 1640 (Life Technologies, Germantown, Md.) supplemented with 10% fetal bovine serum (Life Technologies) and 8 μg/ml bovine insulin (Sigma, St. Louis, Mo.). Growth medium for MDA-MB-231 consisted of Dulbecco's Modified Eagle Medium (Life Technologies) supplemented with L-glutamine (2 mM), non-essential amino acids (1%, Life Technologies) and bovine insulin (1 μg/ml). The MCF-7 cell line was obtained from Dr. Alberto C. Baldi, Institute of Experimental Biology and Medicine, Buenos Aires, Argentina, and was maintained as previously describedby Gierthy et al. (1991).
# Human Breast Cancer Xenograft Assay. […] Tumor growth was monitored during survival laparotomy at 10-day intervals by measurement of the diameters of the short (d) and long axes (D) of each tumor, using a dissecting microscope equipped with an ocular micrometer. Tumor volumes were calculated using the formula (π/6)(d)^2D, assuming the tumor shape to be an ellipsoid of revolution around its long axis (D). […] Mean tumor volume±standard error in each group was calculated for display of growth curves. […]
# [5] = system: T47D human breast cancer xenografts; assay: Human breast cancer xenograft assay, T47D; assay type: in vivo; conditions: E2 supplementation; 30-day observation; vs E2 alone
# [6] = system: estrogen-receptor-negative MDA-MB-231 human breast cancer xenografts; assay: Human breast cancer xenograft assay, MDA-MB-231; assay type: in vivo; conditions: ER− tumor, 30 day observation
# [7] = tamoxifen users; cited from earlier work
# estrogen receptor = target: T1, estrogen receptor (Oryctolagus cuniculus, UniProt G1SML6); assay: Assessment of estrogen receptor antagonism ([3H]E2 binding, uterine cytosol); design: species or system rabbit; conditions: for interference with E2 binding to its receptor: peptide concentration range 10^−10 M to 10^−5 M
# T1 sequence (G1SML6 1-598): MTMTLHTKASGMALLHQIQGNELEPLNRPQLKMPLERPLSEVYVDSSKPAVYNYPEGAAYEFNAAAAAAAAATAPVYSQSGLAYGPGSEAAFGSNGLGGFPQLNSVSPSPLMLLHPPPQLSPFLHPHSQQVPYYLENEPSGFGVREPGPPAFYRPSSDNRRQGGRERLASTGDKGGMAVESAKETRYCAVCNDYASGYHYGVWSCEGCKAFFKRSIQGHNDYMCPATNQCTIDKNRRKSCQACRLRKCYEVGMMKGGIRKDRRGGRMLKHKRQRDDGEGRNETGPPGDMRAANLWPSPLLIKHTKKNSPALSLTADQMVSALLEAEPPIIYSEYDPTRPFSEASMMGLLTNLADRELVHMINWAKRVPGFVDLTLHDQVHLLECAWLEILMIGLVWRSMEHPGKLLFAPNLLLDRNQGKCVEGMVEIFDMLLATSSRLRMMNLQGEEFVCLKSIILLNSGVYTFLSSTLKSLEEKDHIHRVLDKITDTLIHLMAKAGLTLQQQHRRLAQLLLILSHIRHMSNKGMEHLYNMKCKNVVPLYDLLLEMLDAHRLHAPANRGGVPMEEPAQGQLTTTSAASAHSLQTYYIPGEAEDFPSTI
# Method: Assessment of Estrogen Receptor Antagonism. Commercially obtained rabbit uteri (Pel-Freez Biological, Rogers, Ark.) were used as a source of estrogen receptor. […] Total count tubes received 20 μl of [^3H] estradiol and 180 μl of assay buffer.
# [8] = system: growth of the immature mouse uterus; assay: Uterotrophic effect of test agent alone on immature mouse uterus; assay type: in vivo; conditions: even at a dose of 10 μg/mouse
# Method: Various doses indicated on the abscissa of each test agent were injected i.p. Twenty-two hours later uteri were harvested and weighed.
# Immature Mouse Uterine Growth Assay. A bioassay for anti-estrotrophic activity was performed using an immature mouse uterine growth assay (22). Swiss/Webster female mice, 6-8 g in body weight (13-15 days old), were obtained from Taconic Farms (Germantown, N.Y.). […] In a typical experiment, each group received two sequential intraperitoneal injections spaced one hour apart. Test material or vehicle control for that material was contained in the first injectant. Estradiol (E2) or vehicle control for E2 was contained in the second injectant. Twenty-two hours after the second injection, uteri were dissected, trimmed free of mesenteries, and immediately weighed. The uterine weights were normalized to mouse body weights (mg uterine weight/g of body weight) to compensate for differences in body weight among litters of the same age. Experiments employed a minimum of five mice per group, and the mean normalized uterine weight±standard error for each group was calculated. Percent growth inhibition in a test group was calculated from the normalized uterine wet weights as described below.
# [9] = system: tamoxifen-stimulated growth of immature mouse uterus; assay: Inhibition of tamoxifen-stimulated growth of immature mouse uterus; assay type: in vivo; conditions: Pep i.p. one hour before Tam, uteri weighed 22 hours later
# Excerpt: as §2
# [10] = Preliminary pharmacokinetic studies in mice; assay type: in vivo, mouse
# [11] = Toxicity to mice in the uterine growth assay; assay type: in vivo; conditions: even at an effective dose of 1 mg/mouse
# Excerpt: as §2
compound,measurement,setting,value
"EMTPVNPG [SEQ ID NO: 6: EMTPVNPG, native AFP-derived octapeptide, amino acids 472-479 of alpha-fetoprotein, reference compound]",dose of maximal (optimal) inhibition of estrogen-stimulated growth of mouse uterus,[1],~1 μg/mouse
same,effect of 4 M urea treatment on biological activity of stored peptide,[1],regenerated
same,effect of excipient on shelf-life of the peptide,[2]; excipient: dodecylmaltoside,significantly prolonged shelf-life
same,effect of excipient on shelf-life of the peptide,[2]; excipient: mannitol,significantly prolonged shelf-life
same,effect of excipient on shelf-life of the peptide,[2]; excipient: sucrose,did not do so
same,time in storage after which anti-estrotrophic activity was lost (diminished to insignificant levels),[2],four to five
"CC/C(=C(\c1ccccc1)c1ccc(OCCN(C)C)cc1)c1ccccc1 [tamoxifen, reference compound]",effect on estrogen-dependent growth (tumor volume) of MCF-7 xenografts,[3],no increase in tumor volume
same,effect on growth (tumor volume) of tamoxifen-resistant MCF-7 subline xenografts,[4],only minimally effective
same,effect on growth (tumor volume) of T47D xenografts,[5],prevented growth
same,effect on growth (tumor volume) of MDA-MB-231 xenografts,[6],did not affect the growth
same,users in whom uterine cancer is caused (side effect),[7],0.2%
"EMTOVNOG (EMT[Hyp]VN[Hyp]G) [SEQ ID NO: 4: EMTOVNOG, linear octapeptide where O is hydroxyproline (4-hydroxyproline for both prolines)]","inhibition of the uterotrophic effect of estradiol (normalized uterine weight, E2+ Pep vs E2)",[1],inhibited
same,"inhibition of the uterotrophic effect of estradiol (normalized uterine weight, E2+ Pep vs E2)",[1]; listed as AFP-derived peptide,significantly different
same,dose of maximal (optimal) inhibition of estrogen-stimulated growth of mouse uterus,[1],1 μg/mouse
same,effect on estrogen-dependent growth (tumor volume) of MCF-7 xenografts,[3],inhibited; also recorded: no significant increase in tumor volume
same,effect on growth (tumor volume) of tamoxifen-resistant MCF-7 subline xenografts,[4],completely stopped the growth
same,effect on growth (tumor volume) of T47D xenografts,[5],completely prevented tumor growth
same,effect on growth (tumor volume) of MDA-MB-231 xenografts,[6],no effect
same,effect on growth (tumor volume) of MDA-MB-231 xenografts,[6]; listed as AFP-derived peptide,no differences in tumor volumes
same,interference with E2 binding to its receptor,estrogen receptor,no interference
same,interference with E2 binding to its receptor,estrogen receptor; listed as linear hydroxyproline-containing octapeptide,did not interfere
same,uterotrophic effect,[8],no uterotrophic effect whatsoever
same,"inhibition of tamoxifen's uterotrophic effect (normalized uterine weight, Tam+ Pep vs Tam)",[9],significantly inhibited
same,"inhibition of tamoxifen's uterotrophic effect (normalized uterine weight, Tam+ Pep vs Tam)",[9]; listed as AFP-derived peptide,significantly different
same,"inhibition of tamoxifen's uterotrophic effect (normalized uterine weight, Tam+ Pep vs Tam)",[9]; listed as Peptide,inhibited
same,shelf-life,[2],indefinite shelf-life
same,biological half-life,[10],two to three
"CSCC[C@@H]1NC(=O)[C@H](CCC(=O)O)NC(=O)[C@H](CCC(N)=O)NC(=O)CNC(=O)[C@@H]2C[C@@H](O)CN2C(=O)[C@H](CC(N)=O)NC(=O)[C@H](C(C)C)NC(=O)[C@@H]2C[C@@H](O)CN2C(=O)[C@H]([C@@H](C)O)NC1=O [cyclo-(SEQ ID NO: 5: EMTOVNOGQ), cyclo-(EMTOVNOGQ)] (cyclo(EMT[Hyp]VN[Hyp]GQ))",anti-estrotrophic activity,[1]; doses higher than 10 μg/mouse,retained significant anti-estrotrophic activity
same,effect on estrogen-dependent growth (tumor volume) of MCF-7 xenografts,[3],significantly inhibited
same,shelf-life,[2],indefinite shelf-life
same,toxicity to the mice,[11],no evidence of toxicity
"EMTPVNPGQ [SEQ ID NO: 7: EMTPVNPGQ, linear nonapeptide, glutamine residue added to the C-terminus of the native octapeptide]",dose of maximal (optimal) inhibition of estrogen-stimulated growth of mouse uterus,[1],1 μg/mouse
"QMTPVNPG [SEQ ID NO: 2: QMTPVNPG, linear octapeptide analog of the AFP octapeptide, N-terminal glutamic acid substituted with glutamine]",biological activity of gel-filtration fraction,[1]; higher molecular weight fraction,biologically inactive
same,biological activity of gel-filtration fraction,[1]; lower molecular weight fraction,active
same,dose of maximal (optimal) inhibition of estrogen-stimulated growth of mouse uterus,[1],1 μg/mouse
same,effect of 4 M urea treatment on biological activity of stored peptide,[1],restored its biological activity
same,biological activity of aged peptide,[1]; stored in the lyophilized state at −20° C. for over one year,completely biologically inactive
same,time in storage after which anti-estrotrophic activity was lost (diminished to insignificant levels),[2],five and four to five
same,shelf-life,[2],stored somewhat better than the native octapeptide
cyclo-(EMTPVNPGQ) (head-to-tail cyclization) [head-to-tail cyclized nonapeptide],inhibition of estrogen-stimulated growth of immature mouse uterus,[1]; at the optimal dose of the linear peptides (1 μg),very active
same,effect of 4 M urea treatment on biological activity of stored peptide,[1],restored the optimal biological activity
same,shelf-life,[2],somewhat extended but still rather limited shelf-life
same,biological activity after prolonged storage,[2]; storage of six months,"significant, albeit not optimal, biological activity"
"O=C(c1ccc(OCCN2CCCCC2)cc1)c1c(-c2ccc(O)cc2)sc2cc(O)ccc12 [raloxifene, reference compound]",inhibition of estradiol binding to its receptor,estrogen receptor; concentration of 100 nM,completely inhibited
